Source: patent publication US12668599B2, “Heterobifunctional compounds and methods of treating disease” (Halda Therapeutics OpCo, Inc., priority 2023, dated 2026)

Key:
[1] = test system: T-Rex 293 cell line SC3 cells having increased expression of androgen receptor protein due to exposure to doxycycline; assay: Cellular growth inhibition, T-Rex 293 SC3 cells with doxycycline-induced androgen receptor (CellTiter-Glo 2.0, 72 hours); format: cell-based; conditions: T-Rex 293 SC3 cells with 10 ng/ml doxycycline (increased androgen receptor expression), 72 hours, CellTiter-Glo 2.0
[2] = test system: T-Rex 293 cell line SC3 cells lacking increased expression of androgen receptor protein; assay: Cellular growth inhibition, T-Rex 293 SC3 cells without doxycycline (CellTiter-Glo 2.0, 72 hours); format: cell-based; conditions: T-Rex 293 SC3 cells not exposed to doxycycline (no increased androgen receptor expression)
VCaP cells = assay: Cellular growth inhibition assay for VCaP cells (CellTiter-Glo 2.0, 72 hours); format: cell-based, human; conditions: CellTiter-Glo 2.0

SMILES | GI50 [1] | GI50 [2] | GI50 (VCaP cells; Homo sapiens, VCaP, 72 h) | GI50 ([2]; 72 h) | GI50 (VCaP cells; 72 hours)
COc1cc(O[C@H]2CC[C@H](NC(=O)c3ccc(N4CCC5(CCC(c6ccc(C7=N[C@@H](C)c8nnc(C)n8-c8sc(C)c(C)c87)cc6Cl)CC5)C4)nn3)CC2)ccc1C#N (stereo partly drawn) [Compound I-84] | < 500 nM | < 500 nM | < 500 nM |  | 
COc1cc(O[C@H]2CC[C@H](NC(=O)c3ccc(N4C[C@]5(F)CN(c6ccc(C7=N[C@@H](C)c8nnc(C)n8-c8sc(C)c(C)c87)cc6)C[C@]5(F)C4)nn3)CC2)ccc1C#N [Compound I-91] | < 500 nM |  | < 500 nM | < 500 nM | 
COc1cc(O[C@H]2CC[C@H](NC(=O)c3ccc(N4CCC5(CCC(c6ccc(C7=N[C@@H](C)c8nnc(C)n8-c8sc(C)c(C)c87)cc6)C5)C4)nn3)CC2)ccc1C#N (stereo partly drawn) [Compound I-96] | < 500 nM | < 500 nM |  |  | < 500 nM
COc1cc(O[C@H]2CC[C@H](NC(=O)c3ccc(N4CCC5(CCCN(c6ccc(C7=N[C@@H](C)c8nnc(C)n8-c8sc(C)c(C)c87)cc6)C5)CC4)nn3)CC2)ccc1C#N [Compound I-81, N-((1r,4r)-4-(4-cyano-3-methoxyphenoxy)cyclohexyl)-6-(2-(4-((S)-2,3,6,9-tetramethyl-6H-thieno[3,2-f][1,2,4]triazolo[4,3-a][1,4]diazepin-4-yl)phenyl)-2,9-diazaspiro[5.5]undecan-9-yl) pyridazine-3-carboxamide] | < 500 nM |  | < 500 nM | < 500 nM | 
COc1cc(O[C@H]2CC[C@H](NC(=O)c3ccc(N4CCC5(CCN(c6ccc(C7=N[C@@H](C)c8nnc(C)n8-c8sc(C)c(C)c87)cc6)CC5(F)F)C4)nn3)CC2)ccc1C#N (stereo partly drawn) [Compound I-116] | < 500 nM | < 500 nM |  |  | < 500 nM
COc1cc(O[C@H]2CC[C@H](NC(=O)c3ccc(N4CCC5(CC4)CC(Oc4ccc(C6=N[C@@H](Cc7ncco7)c7nnc(C)n7-c7sc(C)c(C)c76)c(F)c4)C5)nn3)CC2)ccc1C#N [Compound I-128, N-[4-(4-cyano-3-methoxy-phenoxy)cyclohexyl]-6-[2-[3-fluoro-4-[(9S)-4,5,13-trimethyl-9-(oxazol-2-ylmethyl)-3-thia-1,8,11,12-tetrazatricyclo[8.3.0.0^2,6]trideca-2 (6),4,7,10,12-pentaen-7-yl]phenoxy]-7-azaspiro[3.5]nonan-7-yl]pyridazine-3-carboxamide] | < 500 nM |  | < 500 nM | < 500 nM | 
COc1cc(O[C@H]2CC[C@H](NC(=O)c3ccc(N4CCC5(CCC(c6ccc(C7=N[C@@H](C)c8nnc(C)n8-c8sc(C)c(C)c87)cc6)C5)C4)nn3)CC2)ccc1C#N (stereo partly drawn) [Compound I-94] | < 500 nM |  | < 500 nM | < 500 nM | 
COc1cc(O[C@H]2CC[C@H](NC(=O)c3ccc(N4CCC5(CCC(c6ccc(C7=N[C@@H](C)c8nnc(C)n8-c8sc(C)c(C)c87)cc6C(C)C)CC5)C4)nn3)CC2)ccc1C#N (stereo partly drawn) [Compound I-121] | < 500 nM |  | < 500 nM | > 3000 nM | 
COC[C@@H]1N=C(c2ccc(C#CC3CC4(C3)CN(c3ccc(C(=O)N[C@H]5CC[C@H](Oc6ccc(C#N)c(OC(F)(F)F)c6)CC5)nn3)C4)cc2)c2c(sc(C)c2C)-n2c(C)nnc21 [Compound I-8, N-[4-[4-cyano-3-(trifluoromethoxy)phenoxy]cyclohexyl]-6-[6-[2-[4-[(9R)-9-(methoxymethyl)-4,5,13-trimethyl-3-thia-1,8,11,12-tetrazatricyclo[8.3.0.0^2,6]trideca-2 (6),4,7,10,12-pentaen-7-yl]phenyl]ethynyl]-2-azaspiro[3.3]heptan-2-yl]pyridazine-3-carboxamide] | < 500 nM |  | < 500 nM | < 500 nM | 
COc1cc(O[C@H]2CC[C@H](NC(=O)c3ccc(N4CCC5(CCC(c6ccc(C7=N[C@@H](C)c8nnc(C)n8-c8sc(C)c(C)c87)c(OC)c6)CC5)C4)nn3)CC2)ccc1C#N (stereo partly drawn) [Compound I-69] | < 500 nM | < 500 nM |  |  | < 500 nM
COc1cc(O[C@H]2CC[C@H](NC(=O)c3cnc(N4CCC5(CCN(c6ccc(C7=N[C@@H](C)c8nnc(C)n8-c8sc(C)c(C)c87)cc6)CC5)C4)nc3)CC2)ccc1C#N [Compound I-37, N-((1r,4r)-4-(4-cyano-3-methoxyphenoxy)cyclohexyl)-2-(8-(4-((S)-2,3,6,9-tetramethyl-6H-thieno[3,2-f][1,2,4]triazolo[4,3-a][1,4]diazepin-4-yl)phenyl)-2,8-diazaspiro[4.5]decan-2-yl)pyrimidine-5-carboxamide] | < 500 nM |  | < 500 nM | < 500 nM | 
COC[C@@H]1N=C(c2ccc(C#CC3CC4(C3)CN(c3ccc(C(=O)N[C@H]5CC[C@H](Oc6ccc(C#N)c(OC)c6)CC5)nn3)C4)cc2)c2c(sc(C)c2C)-n2c(C)nnc21 [Compound I-32, N-[4-(4-cyano-3-methoxy-phenoxy)cyclohexyl]-6-[6-[2-[4-[(9R)-9-(methoxymethyl)-4,5,13-trimethyl-3-thia-1,8,11,12-tetrazatricyclo[8.3.0.0^2,6]trideca-2 (6),4,7,10,12-pentaen-7-yl]phenyl]ethynyl]-2-azaspiro[3.3]heptan-2-yl]pyridazine-3-carboxamide] | < 500 nM |  | < 500 nM | < 500 nM | 
COc1cc(O[C@H]2CC[C@H](NC(=O)c3ccc(N4C[C@]5(C)CN(c6ccc(C7=N[C@@H](Cc8ncco8)c8nnc(C)n8-c8sc(C)c(C)c87)cc6)C[C@]5(C)C4)nn3)CC2)ccc1C#N [Compound I-118] | < 500 nM |  | < 500 nM | < 500 nM | 
COc1cc(O[C@H]2CC[C@H](NC(=O)c3ccc(N4CCC5(CCN(c6ccc(C7=N[C@@H](C)c8nnc(C)n8-c8sc(C)c(C)c87)cc6)CC5(F)F)C4)nn3)CC2)ccc1C#N (stereo partly drawn) [Compound I-113] | < 500 nM |  | < 500 nM | < 500 nM | 
CC[C@@H]1N=C(c2ccc(C3CCC4(CC3)CCN(c3ccc(C(=O)NC5CCC(Oc6ccc(C#N)c(OC)c6)CC5)nn3)C4)cc2)c2c(sc(C)c2C)-n2c(C)nnc21 (stereo partly drawn) [Compound I-41, N-((1r,4r)-4-(4-cyano-3-methoxyphenoxy)cyclohexyl)-6-(8-(4-((S)-6-ethyl-2,3,9-trimethyl-6H-thieno[3,2-f][1,2,4]triazolo[4,3-a][1,4]diazepin-4-yl)phenyl)-2-azaspiro[4.5]decan-2-yl) pyridazine-3-carboxamide] | < 500 nM | < 500 nM |  |  | < 500 nM
COc1cc(O[C@H]2CC[C@H](NC(=O)c3ccc(N4C[C@@H]5CN(c6ccc(C7=N[C@@H](C)c8nnc(C)n8-c8sc(C)c(C)c87)cc6F)C[C@@H]5C4)nn3)CC2)ccc1C#N [Compound I-76] | < 500 nM |  | < 500 nM | < 500 nM | 
COc1cc(O[C@H]2CC[C@H](NC(=O)c3ccc(N4CCC5(CCC(c6ccc(C7=N[C@@H](C)c8nnc(C)n8-c8sc(C)c(C)c87)cn6)CC5)C4)nn3)CC2)ccc1C#N (stereo partly drawn) [Compound I-86, N-[4-(4-cyano-3-methoxy-phenoxy)cyclohexyl]-6-[8-[5-[(9S)-4,5,9,13-tetramethyl-3-thia-1,8,11,12-tetrazatricyclo[8.3.0.0^2,6]trideca-2 (6),4,7,10,12-pentaen-7-yl]-2-pyridyl]-2-azaspiro[4.5]decan-2-yl]pyridazine-3-carboxamide] | < 500 nM | > 3000 nM | < 500 nM |  | 
COc1cc(O[C@H]2CC[C@H](NC(=O)c3ccc(N4CCC5(CCC(c6ccc(C7=N[C@@H](C)c8nnc(C)n8-c8sc(C)c(C)c87)nc6)CC5)C4)nn3)CC2)ccc1C#N (stereo partly drawn) [Compound I-89] | < 500 nM | < 500 nM |  |  | 500 to 1500 nM
